Key:
Mu-type opioid receptor [1] = target: T1, Mu-type opioid receptor (Homo sapiens, UniProt P35372); assay: Agonist activity at human mu opioid receptor expressed in CHO-K1 cells coexpressing Galpha15 assessed as increase in fluorescence of [ca2+]i measured for 1.52 sec by FLIPR calcium assay; format: functional, cell-based
Mu-type opioid receptor [2] = target: T1, Mu-type opioid receptor; assay: Agonist activity at human mu opioid receptor expressed in CHO-K1 cells coexpressing Galpha15 assessed as increase in fluorescence of [ca2+]i by measuring maximum efficacy measured for 1.52 sec by FLIPR calcium assay relative to control; format: functional, cell-based; conditions: filed as agonist

T1 sequence (P35372 whole entry): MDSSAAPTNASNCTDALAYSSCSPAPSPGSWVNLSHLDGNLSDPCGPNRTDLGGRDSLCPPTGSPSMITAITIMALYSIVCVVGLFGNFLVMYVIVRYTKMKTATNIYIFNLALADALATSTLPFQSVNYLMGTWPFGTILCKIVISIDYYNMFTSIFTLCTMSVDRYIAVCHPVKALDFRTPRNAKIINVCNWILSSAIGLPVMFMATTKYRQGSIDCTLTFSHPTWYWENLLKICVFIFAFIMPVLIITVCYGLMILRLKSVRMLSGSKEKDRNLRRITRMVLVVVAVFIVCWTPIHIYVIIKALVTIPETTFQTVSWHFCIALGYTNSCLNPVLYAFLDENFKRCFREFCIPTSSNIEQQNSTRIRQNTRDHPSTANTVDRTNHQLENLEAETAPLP

SMILES	EC50 (Mu-type opioid receptor [1])	Emax (Mu-type opioid receptor [2])
Cc1ccc2cc(C(=O)NCC(c3ccccc3Cl)N(C)C)sc2c1 (configuration not stated)	1890 nM	58.4%
Cc1ccc2c(Cl)c(C(=O)NCC(c3ccccc3Cl)N(C)C)sc2c1 (configuration not stated)	2580 nM	55%
CN(C)C(CNC(=O)c1cc2ccccc2s1)c1ccccc1F (configuration not stated)	1240 nM	105%
CN(C)C(CNC(=O)c1cc2ccccc2s1)c1ccc(F)cc1 (configuration not stated)	6.4 nM	117%
CN(C)C(CNC(=O)c1cc2ccccc2s1)c1ccc(Cl)cc1 (configuration not stated)	1260 nM	112%
CN(C)C(CNC(=O)c1cc2ccccc2s1)c1ccccc1Cl (configuration not stated)	3.04 nM	66.7%
Cc1cccc(C(CNC(=O)c2cc3ccccc3s2)N(C)C)c1 (configuration not stated)	4110 nM	116%
CN(C)C(CNC(=O)c1sccc1Cl)c1ccccc1Cl (configuration not stated)	1060 nM	50.7%
CN(C)C(CNC(=O)c1cc2ccccc2s1)c1cccs1 (configuration not stated)	13.6 nM	131%
Cc1ccc2c(Cl)c(C(=O)NCC(c3ccccc3)N(C)C)sc2c1 (configuration not stated)	1620 nM	73.6%
CN(C)C(CNC(=O)c1cc2ccccc2s1)c1ccc(Br)cc1 (configuration not stated)	150 nM	103%

From ChEMBL document CHEMBL5352416, “Benzo[b]thiophene-2-carboxamides as novel opioid receptor agonists with potent analgesic effect and reduced constipation” (Eur J Med Chem, 2022)
